Measured values published in ChEMBL document CHEMBL4842368, “Berotralstat (BCX7353): Structure-Guided Design of a Potent, Selective, and Oral Plasma Kallikrein Inhibitor to Prevent Attacks of Hereditary Angioedema (HAE)” (J Med Chem, 2021).
Converted amounts (≈) assume the structure as drawn.

What was measured:
Plasma kallikrein [1] = target: T1, Plasma kallikrein (Homo sapiens, UniProt P03952); experiment: Inhibition of purified human plasma kallikrein using H-D-Pro-Phe-Arg-pNA.2HCl as substrate measured after 3 mins by microplate reader analysis
T1 sequence (P03952 20-390 limits assumed): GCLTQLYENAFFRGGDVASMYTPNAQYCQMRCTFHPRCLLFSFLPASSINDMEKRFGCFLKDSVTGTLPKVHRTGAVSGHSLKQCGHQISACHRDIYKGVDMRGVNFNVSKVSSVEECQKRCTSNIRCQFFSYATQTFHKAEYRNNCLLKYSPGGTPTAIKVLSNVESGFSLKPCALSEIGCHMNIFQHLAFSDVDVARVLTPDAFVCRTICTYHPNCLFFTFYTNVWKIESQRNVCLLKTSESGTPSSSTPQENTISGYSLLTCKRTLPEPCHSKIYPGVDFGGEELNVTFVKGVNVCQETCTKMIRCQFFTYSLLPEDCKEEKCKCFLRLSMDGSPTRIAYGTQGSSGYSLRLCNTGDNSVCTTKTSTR
T1 sequence (P03952 391-638 limits assumed): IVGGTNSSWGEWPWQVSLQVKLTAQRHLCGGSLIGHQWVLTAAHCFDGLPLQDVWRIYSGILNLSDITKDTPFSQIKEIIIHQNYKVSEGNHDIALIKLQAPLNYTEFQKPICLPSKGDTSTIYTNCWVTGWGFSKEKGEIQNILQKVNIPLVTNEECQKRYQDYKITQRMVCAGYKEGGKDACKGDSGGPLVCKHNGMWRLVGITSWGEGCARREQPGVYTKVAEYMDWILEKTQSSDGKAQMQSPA

Homo sapiens [2] = species: Homo sapiens; experiment: Selectivity index, ratio of IC50 for human trypsin to IC50 for human plasma kallikrein
[3] = Solubility of compound at pH 4; type: physicochemical; settings: buffer
[4] = Solubility of compound at pH 7; type: physicochemical; settings: buffer
Plasma kallikrein [5] = target: T1, Plasma kallikrein; experiment: Inhibition of purified human plasma kallikrein assessed as inhibition constant using H-D-Pro-Phe-Arg-pNA.2HCl as substrate measured after 3 mins by microplate reader analysis
Plasma kallikrein [6] = target: T1, Plasma kallikrein; experiment: Inhibition of endogenous human plasma kallikrein using Z-Phe-Arg-AMC.HCl as substrate measured after 5 mins by microplate reader analysis
[7] = AUC in rat at 5 mg/kg, po after 12 hrs; type: ADME, organism-based; set-up: route oral, time 12 hrs, dose 5 mg/kg; settings: in vivo
[8] = Cmax in rat at 5 mg/kg, po; type: ADME, organism-based; set-up: route oral, dose 5 mg/kg; settings: in vivo
[9] = Plasma concentration in rat at 10 mg/kg, po after 24 hrs; type: ADME, organism-based
[10] = Cmax in rat at 10 mg/kg, po; type: ADME, organism-based; set-up: route oral, dose 10 mg/kg; settings: in vivo
[11] = AUC in rat at 10 mg/kg, po after 24 hrs; type: ADME, organism-based; set-up: route oral, time 24 hrs, dose 10 mg/kg; settings: in vivo
Plasma kallikrein [12] = target: T1, Plasma kallikrein; experiment: Inhibition of purified human plasma kallikrein using H-D-Pro-Phe-Arg-pNA.2HCl as substrate at 5 uM measured after 3 mins by microplate reader analysis relative to control
Homo sapiens [13] = species: Homo sapiens; experiment: Selectivity index, ratio of IC50 for human Cls to IC50 for human plasma kallikrein
Homo sapiens [14] = species: Homo sapiens; experiment: Selectivity index, ratio of IC50 for human tPA to IC50 for human plasma kallikrein
Homo sapiens [15] = species: Homo sapiens; experiment: Selectivity index, ratio of IC50 for human FX2a to IC50 for human plasma kallikrein
Homo sapiens [16] = species: Homo sapiens; experiment: Selectivity index, ratio of IC50 for human thrombin to IC50 for human plasma kallikrein
Homo sapiens [17] = species: Homo sapiens; experiment: Selectivity index, ratio of IC50 for human plasmin to IC50 for human plasma kallikrein
Homo sapiens [18] = species: Homo sapiens; experiment: Selectivity index, ratio of IC50 for human APC to IC50 for human plasma kallikrein
Homo sapiens [19] = species: Homo sapiens; experiment: Selectivity index, ratio of IC50 for human tissue kallikrein to IC50 for human plasma kallikrein
Homo sapiens [20] = species: Homo sapiens; experiment: Selectivity index, ratio of IC50 for human FXa to IC50 for human plasma kallikrein

**Q.** With `NCc1cccc(-n2cccn2)c1` as the compound, how does the IC50 (Plasma kallikrein [1]) read?
**A.** The IC50 was 3400 µM.

**Q.** For `NCc1cccc(-n2nc(C(F)(F)F)cc2C(=O)Nc2ccc(-c3ccc(C(N)=O)cc3)cc2F)c1`, which IC50 (Plasma kallikrein [1]) is on record?
**A.** The IC50 was 0.395 µM.

**Q.** Which IC50 (Plasma kallikrein [1]) does the source give for `NCc1cccc(-n2nc(C(F)(F)F)cc2C(=O)Nc2ccccc2)c1` here?
**A.** The IC50 was 22.6 µM.

**Q.** Which IC50 (Plasma kallikrein [1]) does the source give for `CS(=O)(=O)c1cccc(-c2ccc(NC(=O)c3cc(C(F)(F)F)nn3-c3cccc(CN)c3)c(F)c2)c1` here?
**A.** The IC50 was 1.23 µM.

**Q.** What does the source list for `C=Cc1cc(C(=O)Nc2ccc(C(=N)N)cc2)c(-c2ccc(C(=O)NCC3CC3)nc2C(=O)O)cc1OC` [AVORALSTAT]?
**A.** Ratio IC50 (Homo sapiens [2]): 8192; solubility [3]: 47 mg/mL (≈ 91.5 mM); solubility [4]: 1.09 mg/mL (≈ 2.12 mM); Ki (Plasma kallikrein [5]): 0.00026 µM

**Q.** With `NCc1cccc(-n2nc(C(F)(F)F)cc2C(=O)Nc2ccc(-c3ccccc3)cc2)c1` as the compound, how does the IC50 (Plasma kallikrein [1]) read?
**A.** Its IC50 is 2.9 µM.

**Q.** Which IC50 (Plasma kallikrein [1]) does the source give for `NCc1cccc(-n2nc(C(F)(F)F)cc2C(=O)Nc2ccc(C3CC3)cc2F)c1` here?
**A.** The IC50 was 0.577 µM.

**Q.** With `N#Cc1ccc(C(NCC2CC2)c2ccc(F)c(NC(=O)c3cc(C(F)(F)F)nn3-c3cccc(CN)c3)c2)cc1` (centres undefined) as the compound, how does the IC50 (Plasma kallikrein [1]) read?
**A.** The IC50 was 0.0072 µM.

**Q.** What about the IC50 (Plasma kallikrein [6]) of the same compound?
**A.** The IC50 was 0.019 µM.

**Q.** Which IC50 (Plasma kallikrein [1]) does the source give for `NCc1cccc(-n2nc(C(F)(F)F)cc2C(=O)Nc2ccc(-c3ccc(S(N)(=O)=O)cc3)cc2F)c1` here?
**A.** Its IC50 is 0.395 µM.

**Q.** Which AUC at 12 h [7] does the source give for `NCc1cccc(-n2nc(C(F)(F)F)cc2C(=O)Nc2cc(C(NCC3CC3)c3ccccn3)ccc2F)c1` (centres undefined) here?
**A.** The AUC at 12 h was 131 ng·h/mL.

**Q.** And the IC50 (Plasma kallikrein [1])?
**A.** Its IC50 is 0.0104 µM.

**Q.** What about the Cmax [8] of the same compound?
**A.** The Cmax was 45 ng/mL.

**Q.** What about the IC50 (Plasma kallikrein [6]) of the same compound?
**A.** Its IC50 is 0.0267 µM.

**Q.** What does the source list for `NCc1cccc(-n2nc(C(F)(F)F)cc2C(=O)Nc2cccc(C(OCC3CC3)c3ccccc3)c2)c1` (centres undefined)?
**A.** IC50 (Plasma kallikrein [1]): 0.0376 µM; IC50 (Plasma kallikrein [6]): 0.3 µM

**Q.** For `NCc1cccc(-n2nc(C(F)(F)F)cc2C(=O)Nc2cccc(C(O)c3ccccc3)c2F)c1` (centres undefined), which IC50 (Plasma kallikrein [1]) is on record?
**A.** Its IC50 is 0.149 µM.

**Q.** Which IC50 (Plasma kallikrein [1]) does the source give for `NCc1cccc(-n2nc(C(F)(F)F)cc2C(=O)Nc2cc(C(O)c3ccccc3)ccc2F)c1` (centres undefined) here?
**A.** The IC50 was 0.71 µM.

**Q.** Which concentration at 24 h [9] does the source give for `NCc1cccc(-n2nc(C(F)(F)F)cc2C(=O)Nc2cc(C(NCC3CC3)c3ccccc3)ccc2F)c1` (single isomer, unassigned; (-)) here?
**A.** The concentration at 24 h was 30 ng/mL.

**Q.** What about the Cmax [10] of the same compound?
**A.** The Cmax was 133 ng/mL.

**Q.** And the AUC at 24 h [11]?
**A.** Its AUC at 24 h is 1490 ng·h/mL.

**Q.** Which inhibition (Plasma kallikrein [12]) does the source give for `NCc1cccc(-n2nc(C(F)(F)F)cc2C(=O)Nc2ccc(N3CCCCC3)cc2F)c1` here?
**A.** The inhibition was 7.5%.

**Q.** What does the source list for `N#Cc1cccc([C@@H](NCC2CC2)c2ccc(F)c(NC(=O)c3cc(C(F)(F)F)nn3-c3cccc(CN)c3)c2)c1` (stereo in doubt)?
**A.** Ratio IC50 (Homo sapiens [13]): > 56800; Ratio IC50 (Homo sapiens [14]): > 56800; Ratio IC50 (Homo sapiens [15]): > 56800; Ratio IC50 (Homo sapiens [2]): 12500; Ratio IC50 (Homo sapiens [16]): > 56800; Ratio IC50 (Homo sapiens [17]): 4510; Ratio IC50 (Homo sapiens [18]): > 34100; Ratio IC50 (Homo sapiens [19]): > 34100; Ratio IC50 (Homo sapiens [20]): > 56800
